Measured values from PubChem BioAssay (NCI).
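Five compound concentrations were applied to cells in 96-well plates for 48 hours; endpoints were derived by simple linear interpolation of the resulting dose-response curve. GI50 is the concentration that inhibits growth by half. TGI marks complete inhibition of growth.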

Experiments:
Experiment in all cases: growth of human tumour cells (NCI), 48 h
HL-60(TB) leukemia = system: HL-60(TB) leukemia
SK-MEL-28 melanoma = system: SK-MEL-28 melanoma
K-562 leukemia = system: K-562 leukemia
PC-3 prostate = system: PC-3 prostate
NCI-H522 lung = system: NCI-H522 lung
HCC-2998 colon = system: HCC-2998 colon
NCI-H460 lung = system: NCI-H460 lung
RPMI-8226 leukemia = system: RPMI-8226 leukemia
NCI/ADR-RES ovarian = system: NCI/ADR-RES ovarian
UACC-62 melanoma = system: UACC-62 melanoma
UO-31 renal = system: UO-31 renal
LOX IMVI melanoma = system: LOX IMVI melanoma
OVCAR-4 ovarian = system: OVCAR-4 ovarian
SNB-75 CNS = system: SNB-75 CNS
U251 CNS = system: U251 CNS
TK-10 renal = system: TK-10 renal
MCF7 breast = system: MCF7 breast
EKVX NSCLC = system: EKVX NSCLC
OVCAR-5 ovarian = system: OVCAR-5 ovarian
DU-145 prostate = system: DU-145 prostate
HOP-92 NSCLC = system: HOP-92 NSCLC
OVCAR-8 ovarian = system: OVCAR-8 ovarian
SF-539 CNS = system: SF-539 CNS
MALME-3M melanoma = system: MALME-3M melanoma
MOLT-4 leukemia = system: MOLT-4 leukemia
NCI-H226 lung = system: NCI-H226 lung
M14 melanoma = system: M14 melanoma
SNB-19 CNS = system: SNB-19 CNS
MDA-MB-231 breast = system: MDA-MB-231 breast
MDA-MB-468 breast = system: MDA-MB-468 breast
OVCAR-3 ovarian = system: OVCAR-3 ovarian
CAKI-1 renal = system: CAKI-1 renal
HS 578T breast = system: HS 578T breast
SF-268 CNS = system: SF-268 CNS
MDA-MB-435 = system: MDA-MB-435
KM12 colon = system: KM12 colon
HT29 colon = system: HT29 colon
SK-MEL-5 melanoma = system: SK-MEL-5 melanoma
SK-OV-3 ovarian = system: SK-OV-3 ovarian
A549 NSCLC = system: A549 NSCLC
HOP-62 NSCLC = system: HOP-62 NSCLC
A498 renal = system: A498 renal
RXF 393 renal = system: RXF 393 renal
SW-620 colon = system: SW-620 colon
T-47D breast = system: T-47D breast
SR leukemia = system: SR leukemia
CCRF-CEM leukemia = system: CCRF-CEM leukemia
SN12C renal = system: SN12C renal
UACC-257 melanoma = system: UACC-257 melanoma
HCT-116 colon = system: HCT-116 colon
COLO 205 colon = system: COLO 205 colon
IGROV1 ovarian = system: IGROV1 ovarian
BT-549 breast = system: BT-549 breast
SF-295 CNS = system: SF-295 CNS
786-0 renal = system: 786-0 renal
ACHN renal = system: ACHN renal
HCT-15 colon = system: HCT-15 colon
NCI-H23 lung = system: NCI-H23 lung
SK-MEL-2 melanoma = system: SK-MEL-2 melanoma

For `O=C(c1ccc(Cl)cc1)C1[C@H](c2ccccc2Cl)[C@@H](c2ccccc2)NC12C(=O)Nc1ccc(Cl)cc12` (stereo partly drawn), the GI50 (HL-60(TB) leukemia) was 19.9 µM, the TGI (HL-60(TB) leukemia) was 52.5 µM and the GI50 (SK-MEL-28 melanoma) was 17.1 µM. It also gave a TGI (SK-MEL-28 melanoma) of 31.6 µM, a GI50 (K-562 leukemia) of 26.6 µM and a TGI (K-562 leukemia) of over 100 µM. It also gave a GI50 (PC-3 prostate) of 15.1 µM, a TGI (PC-3 prostate) of 36.1 µM and a GI50 (NCI-H522 lung) of 13.7 µM. The TGI (NCI-H522 lung) was 30.3 µM, the GI50 (HCC-2998 colon) was 16.3 µM and the TGI (HCC-2998 colon) was 32.7 µM. The GI50 (NCI-H460 lung) was 19 µM, the TGI (NCI-H460 lung) was 36.3 µM and the GI50 (RPMI-8226 leukemia) was 25.6 µM. It also gave a TGI (RPMI-8226 leukemia) of 79.7 µM, a GI50 (NCI/ADR-RES ovarian) of 16.3 µM and a TGI (NCI/ADR-RES ovarian) of 33.2 µM. The GI50 (UACC-62 melanoma) was 13.4 µM, the TGI (UACC-62 melanoma) was 26.7 µM and the GI50 (UO-31 renal) was 12.9 µM. For the same compound, the TGI (UO-31 renal) was 37.7 µM, the GI50 (LOX IMVI melanoma) was 14.9 µM and the TGI (LOX IMVI melanoma) was 28.1 µM. It also gave a GI50 (OVCAR-4 ovarian) of 20.8 µM, a TGI (OVCAR-4 ovarian) of 58.4 µM and a GI50 (SNB-75 CNS) of 11.1 µM. For the same compound, the TGI (SNB-75 CNS) was 36.9 µM, the GI50 (U251 CNS) was 16.8 µM and the TGI (U251 CNS) was 33 µM. For the same compound, the GI50 (TK-10 renal) was 19.6 µM, the TGI (TK-10 renal) was 53.2 µM and the GI50 (MCF7 breast) was 17.6 µM. For the same compound, the TGI (MCF7 breast) was 42.6 µM, the GI50 (EKVX NSCLC) was 18 µM and the TGI (EKVX NSCLC) was 47.6 µM. The GI50 (OVCAR-5 ovarian) was 15.9 µM, the TGI (OVCAR-5 ovarian) was 31.6 µM and the GI50 (DU-145 prostate) was 20.1 µM. The TGI (DU-145 prostate) was 42.7 µM, the GI50 (HOP-92 NSCLC) was 16 µM and the TGI (HOP-92 NSCLC) was 33.8 µM. The GI50 (OVCAR-8 ovarian) was 17.9 µM, the TGI (OVCAR-8 ovarian) was 39.5 µM and the GI50 (SF-539 CNS) was 16.9 µM. For the same compound, the TGI (SF-539 CNS) was 32.6 µM, the GI50 (MALME-3M melanoma) was 15.4 µM and the TGI (MALME-3M melanoma) was 29 µM. For the same compound, the GI50 (MOLT-4 leukemia) was 23.6 µM, the TGI (MOLT-4 leukemia) was 78.7 µM and the GI50 (NCI-H226 lung) was 14.9 µM. For the same compound, the TGI (NCI-H226 lung) was 30.3 µM, the GI50 (M14 melanoma) was 15.3 µM and the TGI (M14 melanoma) was 28.7 µM. The GI50 (SNB-19 CNS) was 23.1 µM, the TGI (SNB-19 CNS) was 78.9 µM and the GI50 (MDA-MB-231 breast) was 15.6 µM. For the same compound, the TGI (MDA-MB-231 breast) was 29.5 µM, the GI50 (MDA-MB-468 breast) was 11.8 µM and the TGI (MDA-MB-468 breast) was 25.8 µM. The GI50 (OVCAR-3 ovarian) was 16.8 µM, the TGI (OVCAR-3 ovarian) was 35.3 µM and the GI50 (CAKI-1 renal) was 15.2 µM. The TGI (CAKI-1 renal) was 43.5 µM, the GI50 (HS 578T breast) was 16.5 µM and the TGI (HS 578T breast) was 40.2 µM. The GI50 (SF-268 CNS) was 19.5 µM, the TGI (SF-268 CNS) was 48.2 µM and the GI50 (MDA-MB-435) was 16 µM. For the same compound, the TGI (MDA-MB-435) was 30.3 µM, the GI50 (KM12 colon) was 18.2 µM and the TGI (KM12 colon) was 38.1 µM. For the same compound, the GI50 (HT29 colon) was 15.6 µM, the TGI (HT29 colon) was 32.5 µM and the GI50 (SK-MEL-5 melanoma) was 16.6 µM. The TGI (SK-MEL-5 melanoma) was 30.6 µM, the GI50 (SK-OV-3 ovarian) was 21 µM and the TGI (SK-OV-3 ovarian) was 61.2 µM. The GI50 (A549 NSCLC) was 18.5 µM, the TGI (A549 NSCLC) was 46.1 µM and the GI50 (HOP-62 NSCLC) was 14.8 µM. It also gave a TGI (HOP-62 NSCLC) of 29.3 µM, a GI50 (A498 renal) of 19.9 µM and a TGI (A498 renal) of 46.6 µM. For the same compound, the GI50 (RXF 393 renal) was 13.9 µM, the TGI (RXF 393 renal) was 29.3 µM and the GI50 (SW-620 colon) was 15.9 µM. It also gave a TGI (SW-620 colon) of 31.8 µM, a GI50 (T-47D breast) of 16.1 µM and a TGI (T-47D breast) of 39.6 µM. For the same compound, the GI50 (SR leukemia) was 18.5 µM, the TGI (SR leukemia) was 47.7 µM and the GI50 (CCRF-CEM leukemia) was 26.7 µM. It also gave a TGI (CCRF-CEM leukemia) of 72.9 µM, a GI50 (SN12C renal) of 15.3 µM and a TGI (SN12C renal) of 28.7 µM. For the same compound, the GI50 (UACC-257 melanoma) was 20.4 µM, the TGI (UACC-257 melanoma) was 44.1 µM and the GI50 (HCT-116 colon) was 14.6 µM. The TGI (HCT-116 colon) was 28.2 µM, the GI50 (COLO 205 colon) was 16.5 µM and the TGI (COLO 205 colon) was 30.1 µM. The GI50 (IGROV1 ovarian) was 16.7 µM, the TGI (IGROV1 ovarian) was 38.5 µM and the GI50 (BT-549 breast) was 16.2 µM. The TGI (BT-549 breast) was 33.3 µM, the GI50 (SF-295 CNS) was 16.9 µM and the TGI (SF-295 CNS) was 34.8 µM. It also gave a GI50 (786-0 renal) of 19.1 µM, a TGI (786-0 renal) of 39.7 µM and a GI50 (ACHN renal) of 25.5 µM. The TGI (ACHN renal) was 79.5 µM, the GI50 (HCT-15 colon) was 16.1 µM and the TGI (HCT-15 colon) was 31.3 µM. It also gave a GI50 (NCI-H23 lung) of 16.2 µM, a TGI (NCI-H23 lung) of 33.2 µM and a GI50 (SK-MEL-2 melanoma) of 16.2 µM. The TGI (SK-MEL-2 melanoma) was 32.7 µM.
